From ChEMBL document CHEMBL1123926, “Synthesis and neuroleptic activity of a series of 1-[1-(benzo-1,4-dioxan-2-ylmethyl)-4-piperidinyl]benzim idazolone derivatives” (J Med Chem, 1987)

Assays:
Rattus norvegicus = organism: Rattus norvegicus; assay: Cataleptogenic activity was evaluated for the compound as the 50% effective dose required to induce cataleptic effect in rats; assay type: functional
[1] = biological target: Dopamine receptor (Mus musculus) (UniProt P51436+Q8BLD9+Q61616+P61168+P30728); assay: Neuroleptic activity determined by its inhibitory effect on apomorphine-induced climbing behavior in mice by intraperitoneal administration; assay type: functional, organism-based
[2] = Therapeutic ratio of ED50 of catalepsy in rats to ED50 of climbing in mouse; assay type: ADME, organism-based; conditions: rat and mouse, in vivo
Mus musculus [3] = assay: Neuroleptic activity determined by its inhibitory effect on apomorphine-induced climbing behavior in mice by intraperitoneal administration. Range is 0.019-0.092; assay type: functional; conditions: ip
D(2) dopamine receptor [4] = biological target: T1, D(2) dopamine receptor (Bos taurus, UniProt P20288); assay: Displacement of [3H]spiroperidol from bovine caudate nucleus membrane Dopamine receptor D2
T1 sequence (P20288 whole entry): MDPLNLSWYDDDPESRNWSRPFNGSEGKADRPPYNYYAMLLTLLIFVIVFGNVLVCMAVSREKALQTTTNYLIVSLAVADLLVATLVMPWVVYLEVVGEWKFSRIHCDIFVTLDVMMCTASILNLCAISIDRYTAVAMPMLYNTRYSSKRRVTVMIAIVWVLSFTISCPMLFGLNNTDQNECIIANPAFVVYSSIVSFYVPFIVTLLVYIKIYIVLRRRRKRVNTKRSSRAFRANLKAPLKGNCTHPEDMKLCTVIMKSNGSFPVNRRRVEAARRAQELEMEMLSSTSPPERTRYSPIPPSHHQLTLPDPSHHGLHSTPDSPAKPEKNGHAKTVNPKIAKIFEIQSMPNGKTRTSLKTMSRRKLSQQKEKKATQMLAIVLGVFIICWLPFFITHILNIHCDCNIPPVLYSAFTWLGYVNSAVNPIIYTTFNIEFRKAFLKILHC

Mus musculus [5] = assay: Neuroleptic activity determined by its inhibitory effect on apomorphine-induced climbing behavior in mice by intraperitoneal administration in experiment 2. Range is 0.11-0.41; assay type: functional; conditions: ip
Mus musculus [6] = assay: Neuroleptic activity determined by its inhibitory effect on apomorphine-induced climbing behavior in mice by peroral administration in experiment 1.Range is 0.02-0.42; assay type: functional; conditions: po
Mus musculus [7] = assay: Neuroleptic activity determined by its inhibitory effect on apomorphine-induced climbing behavior in mice by intraperitoneal administration. Range is 0.03-0.064; assay type: functional; conditions: ip
Mus musculus [8] = assay: Neuroleptic activity determined by its inhibitory effect on apomorphine-induced climbing behavior in mice by intraperitoneal administration. Range is between 0.009-0.037; assay type: functional; conditions: ip
Mus musculus [9] = assay: Neuroleptic activity determined by its inhibitory effect on apomorphine-induced climbing behavior in mice by intraperitoneal administration. Range is 0.008-0.766; assay type: functional; conditions: ip
Mus musculus [10] = assay: Neuroleptic activity determined by its inhibitory effect on apomorphine-induced climbing behavior in mice by intraperitoneal administration. Range is 0.007-0.250; assay type: functional; conditions: ip
Mus musculus [11] = assay: Neuroleptic activity determined by its inhibitory effect on apomorphine-induced climbing behavior in mice by intraperitoneal administration. Range is 0.037-0.256; assay type: functional; conditions: ip
Mus musculus [12] = assay: Neuroleptic activity determined by its inhibitory effect on apomorphine-induced climbing behavior in mice by peroral administration; assay type: functional; conditions: po
Mus musculus [13] = organism: Mus musculus; assay: animal or person; conditions: ip
Description: Neuroleptic activity determined by its inhibitory effect on apomorphine-induced climbing behavior in mice by intraperitoneal administration in experiment 2 Range is 0.05-0.17

Mus musculus [14] = assay: Neuroleptic activity determined by its inhibitory effect on apomorphine-induced climbing behavior in mice by intraperitoneal administration. Range is between 0.0033-0.278; assay type: functional; conditions: ip
Mus musculus [15] = assay: Neuroleptic activity determined by its inhibitory effect on apomorphine-induced climbing behavior in mice by intraperitoneal administration. Range is 0.009-0.109; assay type: functional; conditions: ip
[16] = Therapeutic ratio of ED50 of catalepsy to ED50 of climbing in […]; assay type: ADME
D(2) dopamine receptor [17] = biological target: T1, D(2) dopamine receptor; assay: Binding affinity towards dopamine receptor D2 was determined by displacement of [3H]spiroperidol from bovine nucleus caudate membranes.
Mus musculus [18] = assay: Neuroleptic activity determined by its inhibitory effect on apomorphine-induced climbing behavior in mice by intraperitoneal administration. Range is 0.040-0.075; assay type: functional; conditions: ip
Mus musculus [19] = assay: Neuroleptic activity determined by its inhibitory effect on apomorphine-induced climbing behavior in mice by intraperitoneal administration. Range is 0.007-0.029; assay type: functional; conditions: ip
Mus musculus [20] = assay: Neuroleptic activity determined by its inhibitory effect on apomorphine-induced climbing behavior in mice by intraperitoneal administration. Range is 0.071-0.206; assay type: functional; conditions: ip
Mus musculus [21] = assay: Neuroleptic activity determined by its inhibitory effect on apomorphine-induced climbing behavior in mice by intraperitoneal administration. Range is between 0.035-0.192; assay type: functional; conditions: ip

Compound	ED50 (Rattus norvegicus) [mg/kg]	ED50 [1] [mg/kg]	other results
Oc1nc2cc(F)ccc2n1C1CCN(CC2COc3cc(F)ccc3O2)CC1 (configuration not stated)	< 5	0.63	
Cc1cc2c(cc1C)OC(CN1CCC(n3c(O)nc4cc(Cl)ccc43)CC1)CO2 (configuration not stated)		0.8	
Oc1nc2cc(Cl)ccc2n1C1CCN(CC2COc3cc(Cl)c(Cl)cc3O2)CC1 (configuration not stated)		6	
Cc1cccc2c1OCC(CN1CCC(n3c(O)nc4cc(F)ccc43)CC1)O2 (configuration not stated)	8		selectivity ratio [2]: 186; ED50 (Mus musculus [3]): 0.043 mg/kg; Ki (D(2) dopamine receptor [4]): 0.008 µM
Cc1ccc2c(c1)nc(O)n2C1CCN(CC2COc3cc(F)ccc3O2)CC1 (configuration not stated)		0.5	
O=c1[nH]c2cc(Cl)ccc2n1C1CCN(CC2COc3ccccc3O2)CC1 (configuration not stated) [AXAMOZIDE]	> 40		selectivity ratio [2]: > 444; ED50 (Mus musculus [5]): 0.21 mg/kg; Ki (D(2) dopamine receptor [4]): 0.03 µM; ED50 (Mus musculus [6]): 0.09 mg/kg
Cc1c(Cl)ccc2nc(O)n(C3CCN(CC4COc5ccccc5O4)CC3)c12 (configuration not stated)		10	
Oc1nc2cc(F)ccc2n1C1CCN(CC2COc3ccc(Cl)cc3O2)CC1 (configuration not stated)			ED50 (Mus musculus [7]): 0.044 mg/kg
Cc1ccc2c(c1)nc(O)n2C1CCN(CC2COc3cc(Cl)c(Cl)cc3O2)CC1 (configuration not stated)		3.6	
Oc1nc2cccnc2n1C1CCN(CC2COc3ccc(F)cc3O2)CC1 (configuration not stated)		> 25	
CCc1ccc2c(c1)nc(O)n2C1CCN(CC2COc3ccccc3O2)CC1 (configuration not stated)		0.17	
Oc1nc2cc(F)ccc2n1C1CCN(CC2COc3cc(Cl)c(Cl)cc3O2)CC1 (configuration not stated)		5.5	
Oc1nc2cccc(Cl)c2n1C1CCN(CC2COc3ccccc3O2)CC1 (configuration not stated)		> 20	
Oc1nc2cc(F)ccc2n1C1CCN(CC2COc3ccccc3O2)CC1 (configuration not stated)			ED50 (Mus musculus [8]): 0.019 mg/kg
Oc1nc2cc(C(F)(F)F)ccc2n1C1CCN(CC2COc3ccc(F)cc3O2)CC1 (configuration not stated)		> 10	
O=c1[nH]c2cc(F)ccc2n1C1CCN(CC2COc3cc(F)ccc3O2)CC1 (configuration not stated)			selectivity ratio [2]: < 8; Ki (D(2) dopamine receptor [4]): 0.07 µM
Cc1ccc2c(c1)nc(O)n2C1CCN(CC2COc3cc(C)c(C)cc3O2)CC1 (configuration not stated)	10		selectivity ratio [2]: 126; ED50 (Mus musculus [9]): 0.079 mg/kg; Ki (D(2) dopamine receptor [4]): 0.045 µM
Cc1c(Cl)ccc2nc(O)n(C3CCN(CC4COc5ccc(F)cc5O4)CC3)c12 (configuration not stated)		> 25	
Oc1nc2cc(-c3ccccc3)ccc2n1C1CCN(CC2COc3ccccc3O2)CC1 (configuration not stated)		> 25	
Cc1ccc2c(c1)nc(O)n2C1CCN(CC2COc3ccccc3O2)CC1 (configuration not stated)	40		selectivity ratio [2]: 3080; ED50 (Mus musculus [10]): 0.013 mg/kg; Ki (D(2) dopamine receptor [4]): 0.12 µM
Oc1nc2cc(F)ccc2n1C1CCN(CC2COc3ccc(F)cc3O2)CC1 (configuration not stated)	20		selectivity ratio [2]: 204; ED50 (Mus musculus [11]): 0.098 mg/kg
Oc1nc2cc(Cl)c(Cl)cc2n1C1CCN(CC2COc3ccc(F)cc3O2)CC1 (configuration not stated)		1.4	

Compound	ED50 (Rattus norvegicus) [mg/kg]	ED50 [1] [mg/kg]	other results
Oc1nc2cc(Cl)ccc2n1C1CCN(CC2COc3ccc(F)cc3O2)CC1 (configuration not stated)			ED50 (Mus musculus [12]): 0.14 mg/kg
O=C(CCCN1CCC(O)(c2ccc(Cl)cc2)CC1)c1ccc(F)cc1 [HALOPERIDOL]	0.5		ED50 (Mus musculus [13]): 0.09 mg/kg
COc1ccc2c(c1)nc(O)n2C1CCN(CC2COc3ccccc3O2)CC1 (configuration not stated)	1		selectivity ratio [2]: 104; ED50 (Mus musculus [14]): 0.0096 mg/kg; Ki (D(2) dopamine receptor [4]): 0.15 µM
Cc1ccc2c(c1)OCC(CN1CCC(n3c(O)nc4cc(C)ccc43)CC1)O2 (configuration not stated)	6		ED50 (Mus musculus [15]): 0.032 mg/kg; selectivity ratio [2]: 188; Ki (D(2) dopamine receptor [4]): 0.04 µM
Oc1nc2ccc(Cl)cc2n1C1CCN(CC2COc3ccccc3O2)CC1 (configuration not stated)		0.11	
CC(C)(C)c1ccc2c(c1)nc(O)n2C1CCN(CC2COc3ccccc3O2)CC1 (configuration not stated)		> 25	
Cc1ccc2c(c1)nc(O)n2C1CCN(CC2COc3ccc(Cl)cc3O2)CC1 (configuration not stated)	1	0.093	selectivity ratio [16]: 11; Ki (D(2) dopamine receptor [17]): 0.03 µM
Oc1nc2ccccc2n1C1CCN(CC2COc3ccccc3O2)CC1 (configuration not stated)		0.7	
Nc1ccc2c(c1)nc(O)n2C1CCN(CC2COc3ccccc3O2)CC1 (configuration not stated)		3.9	
Oc1nc2ccc(Cl)cc2n1C1CCN(CC2COc3ccc(F)cc3O2)CC1 (configuration not stated)		0.16	
Oc1nc2cc(Cl)ccc2n1C1CCN(CC2COc3ccc(Cl)cc3O2)CC1 (configuration not stated)		0.75	
Oc1nc2cccc(Cl)c2n1C1CCN(CC2COc3ccc(F)cc3O2)CC1 (configuration not stated)		> 25	
Cc1cccc2c1OCC(CN1CCC(n3c(O)nc4cc(Cl)ccc43)CC1)O2 (configuration not stated)		1.3	
Oc1nc2cccnc2n1C1CCN(CC2COc3ccccc3O2)CC1 (configuration not stated)		> 10	
Cc1cc2c(cc1C)OC(CN1CCC(n3c(O)nc4cc(F)ccc43)CC1)CO2 (configuration not stated)	> 20		selectivity ratio [2]: > 363; ED50 (Mus musculus [18]): 0.055 mg/kg; Ki (D(2) dopamine receptor [4]): 0.025 µM
Oc1nc2cc(Cl)c(Cl)cc2n1C1CCN(CC2COc3ccccc3O2)CC1 (configuration not stated)		0.45	
Cc1ccc2c(c1)nc(O)n2C1CCN(CC2COc3ccc(F)cc3O2)CC1 (configuration not stated)	2.5		ED50 (Mus musculus [19]): 0.014 mg/kg; selectivity ratio [2]: 187; Ki (D(2) dopamine receptor [4]): 0.15 µM
Cc1ccc2c(c1)OCC(CN1CCC(n3c(O)nc4cc(Cl)ccc43)CC1)O2 (configuration not stated)	20		selectivity ratio [2]: 165; ED50 (Mus musculus [20]): 0.121 mg/kg; Ki (D(2) dopamine receptor [4]): 0.06 µM
Oc1nc2cc(Br)ccc2n1C1CCN(CC2COc3ccccc3O2)CC1 (configuration not stated)	20		selectivity ratio [2]: 244; ED50 (Mus musculus [21]): 0.082 mg/kg; Ki (D(2) dopamine receptor [4]): 0.07 µM
Oc1nc2cc(C(F)(F)F)ccc2n1C1CCN(CC2COc3ccccc3O2)CC1 (configuration not stated)		> 10	
Oc1nc2cc(Cl)ccc2n1C1CCN(CC2COc3cc(F)ccc3O2)CC1 (configuration not stated)		0.2	
